Experimental data taken from patent US8435962B2, “Triacetyl-3-hydroxyphenyladenosine and its use for regulating blood fat” (Institute of Mataria Medica, Chinese Academy of Medical …, priority 2009, dated 2013).

Legend:
hyperlipidemia rats [1] = assay: Effects on plasma lipid in hyperlipidemia rats (high-fat diet); format: in vivo, rat; details: for FFA / HDL-C / HDL/LDL / LDL-C / TC / TG: 4 weeks;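 as to all read-outs here: rats kept on high-fat chow for 4 weeks before dosing, serum taken from abdominal aorta after a 12 h fast at end of treatment, controls given vehicle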
Method: (§2) After a week of accommodation, except control group (20 rat), all the rats (120 rats) were fed with high-fat laboratory chow.
(§3) After four weeks high-fat diet modeling, rats were treated with different drugs by intragastric administration. Control animals received an equal volume of vehicle.
(§4) At the end of 4 weeks drug treatment, animals were fasted for 12 hours before anesthetizing by intraperitoneal injection of pentobarbitale sodium (45 mg/kg), and anticoagulated by 100 U/kg heparin through caudal vein injection. Blood samples were collected from the abdominal aorta within 15 min, and serum was separated. Serum TC, TG, HDL-C, LDL-C, ALT, FFA were detected. Liver and the fat pad behind the belly were separated and weighed, the liver and retroperitoneal fat were weighed too. […] The left rats (10 rats each group) drug treatment was withdrawn while high-fat diet modeling continued. Two weeks later, blood sample was collected from the orbit, and serum TC, TG were detected.

hyperlipidemia rats [2] = assay: Effects on retroperitoneal fat weight of hyperlipidemic rats; format: in vivo, rat; details: for Fat weight (retroperitoneal fat): hyperlipidemic rats, 4 weeks
Text: (§1) Control animals received an equal volume of vehicle.

hyperlipidemia rats [3] = assay: Effects on hepatic SOD activity and MDA content of hyperlipidemia rats; format: in vivo, rat; details: for hepatic MDA / hepatic SOD: 4 weeks
Text: as §1

hyperlipidemia rats [4] = assay: Serum lipid of hyperlipidemia rats after withdrawal from drugs for 2 weeks; format: in vivo, rat; details: for TC / TG: rats, 2 weeks after drug withdrawal, high-fat diet continued
Method: as §2, §3, §4

hyperlipidemia hamsters [5] = assay: Effects on plasma lipid in hyperlipidemia hamsters (high-fat diet); format: in vivo, hamster; details: for HDL-C / HDL/LDL / LDL-C / TC / TG: 4 weeks;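 as to all read-outs here: hamsters given high-fat chow for four weeks, then dosed by gavage, plasma lipids measured in abdominal aortic blood after a 12 h fast, compared with vehicle-treated controls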
Method: (§5) After a week of accommodation, except control group (n=12) all the hamsters (n=72) were fed with high-fat laboratory chow.
as §3
(§6) At the end of 4 weeks drug treatment, animals were fasted for 12 hours (10 of each group). The next day, they were anesthetized by intraperitoneal injection of pentobarbitale sodium (45 mg/kg). Blood samples were collected from the abdominal aorta within 15 min, and plasma was separated. Plasma TC, TG, HDL-C, LDL-C, ALT, FFA were detected. Liver and the retroperitoneal fat were separated and weighed, the liver and fat index were calculated. Liver SOD and MDA were detected by kit after homogenized. The left hamsters (10 each group) drug treatment was withdrawn while high-fat diet modeling continued. Two weeks later, blood sample was collected from the orbit and serum TC and TG were detected.

hyperlipidemia hamsters [6] = assay: Effect on retroperitoneal fat of hyperlipidemia hamsters; format: in vivo, hamster
Method: as §5, §3, §6

hyperlipidemia hamsters [7] = assay: Effects on hepatic SOD activity and MDA concentration in hyperlipidemic hamsters' livers; format: in vivo, hamster; details: for hepatic MDA / hepatic SOD: 4 weeks
Method: as §5, §3, §6

hyperlipidemia hamsters [8] = assay: Serum lipid level in hyperlipidemic hamsters after drug discontinuance (2 weeks); format: in vivo, hamster; details: for TC / TG / serum lipid levels after drug discontinuance: hamsters; for TC / TG: 2 weeks after drug discontinuance, high-fat diet continued; for serum lipid levels after drug discontinuance: vs model group, in words
Method: as §5, §3, §6

hyperlipidemia rats [9] = assay: Effects on liver weight and serum ALT activity of hyperlipidemia rats; details: 4 weeks
Method: as §2, §3, §4

hyperlipidemia hamsters [10] = assay: Effects on serum ALT activity in hyperlipidemic hamsters; details: for ALT: hyperlipidemic hamsters, 4 weeks
Method: as §5, §3, §6

[11] = hyperlipidemia rats, 3 mg/kg intragastric
[12] = hyperlipidemia rats, 6 mg/kg intragastric
[13] = hyperlipidemia rats, 12 mg/kg intragastric

CCC(C)(C)C(=O)O[C@H]1C[C@@H](C)C=C2C=C[C@H](C)[C@H](CC[C@@H]3C[C@@H](O)CC(=O)O3)[C@H]21 [Simvastatin, reference compound]
FFA (hyperlipidemia rats [1]; 2 mg/kg intragastric): 0.96 ± 0.39 mmol/L | HDL-C (hyperlipidemia rats [1]; 2 mg/kg intragastric): 0.59 ± 0.13 mmol/L | HDL/LDL (hyperlipidemia rats [1]; 2 mg/kg intragastric): 0.50 ± 0.16 | LDL-C (hyperlipidemia rats [1]; 2 mg/kg intragastric): 1.24 ± 0.24 mmol/L | TC (hyperlipidemia rats [1]; 2 mg/kg intragastric): 2.22 ± 0.36 mmol/L | TG (hyperlipidemia rats [1]; 2 mg/kg intragastric): 0.76 ± 0.21 mmol/L | Fat weight (retroperitoneal fat) (hyperlipidemia rats [2]; 2 mg/kg intragastric): 0.70 ± 0.28 g/100 g body weight | hepatic MDA (hyperlipidemia rats [3]; 2 mg/kg intragastric): 9.29 ± 2.73 nmol/mg protein | hepatic SOD (hyperlipidemia rats [3]; 2 mg/kg intragastric): 99.5 ± 20.2 U/g pr | TC (hyperlipidemia rats [4]; 2 mg/kg): 2.14 ± 0.33 mmol/L | TG (hyperlipidemia rats [4]; 2 mg/kg): 0.94 ± 0.24 mmol/L | HDL-C (hyperlipidemia hamsters [5]; 2 mg/kg intragastric): 1.12 ± 0.21 mmol/L | HDL/LDL (hyperlipidemia hamsters [5]; 2 mg/kg intragastric): 0.45 ± 0.12 | LDL-C (hyperlipidemia hamsters [5]; 2 mg/kg intragastric): 2.57 ± 0.53 mmol/L | TC (hyperlipidemia hamsters [5]; 2 mg/kg intragastric): 4.46 ± 1.63 mmol/L | TG (hyperlipidemia hamsters [5]; 2 mg/kg intragastric): 3.20 ± 1.70 mmol/L | retroperitoneal fat (hyperlipidemia hamsters [6]; 2 mg/kg intragastric, 4 weeks): 0.97 ± 0.19 g/100g | hepatic MDA (hyperlipidemia hamsters [7]; 2 mg/kg intragastric): 4.48 ± 0.96 nmol/mg protein | hepatic SOD (hyperlipidemia hamsters [7]; 2 mg/kg intragastric): 94.6 ± 38.0 U/g pr | TC (hyperlipidemia hamsters [8]; 2 mg/kg): 4.91 ± 1.18 mmol/L | TG (hyperlipidemia hamsters [8]; 2 mg/kg): 4.58 ± 1.01 mmol/L | Liver weight (hyperlipidemia rats [9]; 'rat' in hamster Table 9, 2 mg/kg intragastric): 3.96 ± 0.93 g/100 g body weight | Liver weight (hyperlipidemia rats [9]; hyperlipidemia rats, 2 mg/kg intragastric): 3.96 ± 0.93 g/100 g body weight

CC(=O)OC[C@H]1O[C@@H](n2cnc3c(Nc4cccc(O)c4)ncnc32)[C@H](OC(C)=O)[C@@H]1OC(C)=O [WS070117, O^2′,O^3′,O^5′-tri-acetyl-N^6-(3-hydroxylphenyl)adenosine]
FFA (hyperlipidemia rats [1]; 3 mg/kg intragastric): 1.04 ± 0.24 mmol/L | HDL-C (hyperlipidemia rats [1]; 3 mg/kg intragastric): 0.58 ± 0.10 mmol/L | HDL/LDL (hyperlipidemia rats [1]; 3 mg/kg intragastric): 0.43 ± 0.12 | LDL-C (hyperlipidemia rats [1]; 3 mg/kg intragastric): 1.38 ± 0.27 mmol/L | TC (hyperlipidemia rats [1]; 3 mg/kg intragastric): 2.39 ± 0.34 mmol/L | TG (hyperlipidemia rats [1]; 3 mg/kg intragastric): 0.67 ± 0.15 mmol/L | FFA (hyperlipidemia rats [1]; 6 mg/kg intragastric): 0.94 ± 0.17 mmol/L | HDL-C (hyperlipidemia rats [1]; 6 mg/kg intragastric): 0.59 ± 0.18 mmol/L | HDL/LDL (hyperlipidemia rats [1]; 6 mg/kg intragastric): 0.52 ± 0.19 | LDL-C (hyperlipidemia rats [1]; 6 mg/kg intragastric): 1.19 ± 0.18 mmol/L | TC (hyperlipidemia rats [1]; 6 mg/kg intragastric): 2.11 ± 0.24 mmol/L | TG (hyperlipidemia rats [1]; 6 mg/kg intragastric): 0.52 ± 0.13 mmol/L | effect on rats FFA (hyperlipidemia rats [1]; 6 mg/kg, in words): significant effect | FFA (hyperlipidemia rats [1]; 12 mg/kg intragastric): 0.97 ± 0.27 mmol/L | HDL-C (hyperlipidemia rats [1]; 12 mg/kg intragastric): 0.56 ± 0.10 mmol/L | HDL/LDL (hyperlipidemia rats [1]; 12 mg/kg intragastric): 0.47 ± 0.13 | LDL-C (hyperlipidemia rats [1]; 12 mg/kg intragastric): 1.24 ± 0.20 mmol/L | TC (hyperlipidemia rats [1]; 12 mg/kg intragastric): 2.30 ± 0.29 mmol/L | TG (hyperlipidemia rats [1]; 12 mg/kg intragastric): 0.55 ± 0.19 mmol/L | HDL-C/LDL-C (hyperlipidemia rats [1]; after treatment, in words): increased | blood TC, TG and LDL-C (hyperlipidemia rats [1]; after treatment, in words): decreased | weight of rats' retroperitoneal fat (hyperlipidemia rats [2]; hyperlipidemia rats, after administration, in words): obviously decreased | Fat weight (retroperitoneal fat) (hyperlipidemia rats [2]; 3 mg/kg intragastric): 0.67 ± 0.33 g/100 g body weight | Fat weight (retroperitoneal fat) (hyperlipidemia rats [2]; 6 mg/kg intragastric): 0.67 ± 0.12 g/100 g body weight | Fat weight (retroperitoneal fat) (hyperlipidemia rats [2]; 12 mg/kg intragastric): 0.64 ± 0.22 g/100 g body weight | hepatic MDA (hyperlipidemia rats [3]; 3 mg/kg intragastric): 8.51 ± 3.32 nmol/mg protein | hepatic SOD (hyperlipidemia rats [3]; 3 mg/kg intragastric): 93.3 ± 37.5 U/g pr | hepatic MDA (hyperlipidemia rats [3]; 6 mg/kg intragastric): 8.71 ± 2.83 nmol/mg protein | hepatic SOD (hyperlipidemia rats [3]; 6 mg/kg intragastric): 102.0 ± 24.4 U/g pr | hepatic MDA (hyperlipidemia rats [3]; 12 mg/kg intragastric): 8.29 ± 2.78 nmol/mg protein | hepatic SOD (hyperlipidemia rats [3]; 12 mg/kg intragastric): 107.7 ± 26.4 U/g pr | hepatic SOD activity (hyperlipidemia rats [3]; after administration, in words): significantly increased | hepatic MDA content (hyperlipidemia rats [3]; in words): decreased | time blood-fat regulatory effect is sustained after withdrawal (hyperlipidemia rats [4]; hyperlipidemia rats): more than 2 weeks | serum TC content after withdrawal from drugs for 2 weeks (hyperlipidemia rats [4]; hyperlipidemia rats, in words): significantly lower than that of the model group | TC (hyperlipidemia rats [4]; 3 mg/kg): 2.12 ± 0.45 mmol/L | TG (hyperlipidemia rats [4]; 3 mg/kg): 1.04 ± 0.19 mmol/L | TC (hyperlipidemia rats [4]; 6 mg/kg): 2.02 ± 0.43 mmol/L | TG (hyperlipidemia rats [4]; 6 mg/kg): 1.03 ± 0.22 mmol/L | TC (hyperlipidemia rats [4]; 12 mg/kg): 2.15 ± 0.32 mmol/L | TG (hyperlipidemia rats [4]; 12 mg/kg): 1.01 ± 0.38 mmol/L | HDL-C (hyperlipidemia hamsters [5]; 3 mg/kg intragastric): 1.24 ± 0.26 mmol/L | HDL/LDL (hyperlipidemia hamsters [5]; 3 mg/kg intragastric): 0.37 ± 0.11 | LDL-C (hyperlipidemia hamsters [5]; 3 mg/kg intragastric): 3.68 ± 1.44 mmol/L | TC (hyperlipidemia hamsters [5]; 3 mg/kg intragastric): 4.35 ± 0.93 mmol/L | TG (hyperlipidemia hamsters [5]; 3 mg/kg intragastric): 4.26 ± 1.52 mmol/L | HDL-C (hyperlipidemia hamsters [5]; 6 mg/kg intragastric): 1.14 ± 0.18 mmol/L | HDL/LDL (hyperlipidemia hamsters [5]; 6 mg/kg intragastric): 0.40 ± 0.09 | LDL-C (hyperlipidemia hamsters [5]; 6 mg/kg intragastric): 3.00 ± 0.90 mmol/L | TC (hyperlipidemia hamsters [5]; 6 mg/kg intragastric): 4.19 ± 1.14 mmol/L | TG (hyperlipidemia hamsters [5]; 6 mg/kg intragastric): 3.67 ± 1.46 mmol/L | HDL-C (hyperlipidemia hamsters [5]; 12 mg/kg intragastric): 1.24 ± 0.40 mmol/L | HDL/LDL (hyperlipidemia hamsters [5]; 12 mg/kg intragastric): 0.59 ± 0.31 | LDL-C (hyperlipidemia hamsters [5]; 12 mg/kg intragastric): 2.26 ± 0.47 mmol/L | TC (hyperlipidemia hamsters [5]; 12 mg/kg intragastric): 3.60 ± 1.84 mmol/L | TG (hyperlipidemia hamsters [5]; 12 mg/kg intragastric): 3.44 ± 1.29 mmol/L | blood TC, TG and LDL-C (hyperlipidemia hamsters [5]; after treatment, in words): decreased | rate HDL-C/LDL-C (hyperlipidemia hamsters [5]; after treatment, in words): increased | retroperitoneal fat (hyperlipidemia hamsters [6]; 3 mg/kg intragastric, 4 weeks): 1.26 ± 0.34 g/100g | retroperitoneal fat (hyperlipidemia hamsters [6]; 6 mg/kg intragastric, 4 weeks): 1.23 ± 0.23 g/100g | retroperitoneal fat (hyperlipidemia hamsters [6]; 12 mg/kg intragastric, 4 weeks): 1.31 ± 0.27 g/100g | retroperitoneal fat (hyperlipidemia hamsters [6]; after treatment, in words): decreased | hepatic MDA (hyperlipidemia hamsters [7]; 3 mg/kg intragastric): 4.8 ± 1.2 nmol/mg protein | hepatic SOD (hyperlipidemia hamsters [7]; 3 mg/kg intragastric): 84.0 ± 19.6 U/g pr | hepatic MDA (hyperlipidemia hamsters [7]; 6 mg/kg intragastric): 4.23 ± 0.72 nmol/mg protein | hepatic SOD (hyperlipidemia hamsters [7]; 6 mg/kg intragastric): 95.1 ± 31.6 U/g pr | hepatic MDA (hyperlipidemia hamsters [7]; 12 mg/kg intragastric): 4.6 ± 0.92 nmol/mg protein | hepatic SOD (hyperlipidemia hamsters [7]; 12 mg/kg intragastric): 91.9 ± 22.9 U/g pr | MDA concentration (hyperlipidemia hamsters [7]; in words): lower than the model group | TC (hyperlipidemia hamsters [8]; 3 mg/kg): 5.34 ± 1.32 mmol/L | TG (hyperlipidemia hamsters [8]; 3 mg/kg): 4.36 ± 1.27 mmol/L | serum lipid levels after drug discontinuance (hyperlipidemia hamsters [8]; 6 mg/kg): significantly lower | TC (hyperlipidemia hamsters [8]; 6 mg/kg): 5.02 ± 1.35 mmol/L | TG (hyperlipidemia hamsters [8]; 6 mg/kg): 4.16 ± 0.77 mmol/L | serum lipid levels after drug discontinuance (hyperlipidemia hamsters [8]; 12 mg/kg): significantly lower | TC (hyperlipidemia hamsters [8]; 12 mg/kg): 4.61 ± 1.11 mmol/L | TG (hyperlipidemia hamsters [8]; 12 mg/kg): 3.82 ± 0.66 mmol/L | time hypolipidemic effect lasted after drug discontinuance (hyperlipidemia hamsters [8]; hyperlipidemic hamsters): ≥ 2 weeks | ALT (hyperlipidemia hamsters [10]; 3 mg/kg intragastric): 100.7 ± 38.2 U/L | ALT (hyperlipidemia hamsters [10]; 6 mg/kg intragastric): 91.7 ± 23.1 U/L | ALT (hyperlipidemia hamsters [10]; 12 mg/kg intragastric): 95.2 ± 34.8 U/L | serum ALT activity (hyperlipidemia hamsters [10]; text of hamster Example 3 says 'hyperlipidemic rats', in words): slightly reduced | Liver weight (hyperlipidemia rats [9]; 'rat' in hamster Table 9, 3 mg/kg intragastric): 3.22 ± 0.48 g/100 g body weight | Liver weight (hyperlipidemia rats [9]; 'rat' in hamster Table 9, 6 mg/kg intragastric): 3.21 ± 0.38 g/100 g body weight | Liver weight (hyperlipidemia rats [9]; 'rat' in hamster Table 9, 12 mg/kg intragastric): 3.26 ± 0.54 g/100 g body weight | Liver weight (hyperlipidemia rats [9]; [11]): 3.22 ± 0.48 g/100 g body weight | serum ALT (hyperlipidemia rats [9]; [11]): 42.9 ± 13.7 U/L | Liver weight (hyperlipidemia rats [9]; [12]): 3.21 ± 0.38 g/100 g body weight | serum ALT (hyperlipidemia rats [9]; [12]): 41.6 ± 19.8 U/L | Liver weight (hyperlipidemia rats [9]; [13]): 3.26 ± 0.54 g/100 g body weight | serum ALT (hyperlipidemia rats [9]; [13]): 42.0 ± 16.6 U/L
